# Test results as given in US20190161736A1, “CELL CULTURE” (National University of Singapore, priority 2016, published 2019).
# Like-named read-outs stand apart in the source and are kept apart here.
# What was measured:
# [1] = tested on: clinical human primary cancer cells cultured from blood samples (CD45- cells); assay: Microwell-based CTC cluster assay, doxorubicin screening on clusters cultured from breast cancer patient blood samples; conditions: for IC50 / viability at 1 µM: Homo sapiens; for IC50: 72 hrs exposure; for viability at 1 µM: 72 hrs
# MCF-7 monolayer cultures = conditions: monolayer cultures with lower cell counts, <10k cells per ml; read-out: IC50 value (previous studies); cited from earlier work
# [2] = tested on: MCF-7 breast cancer cell line clusters; assay: Microwell-based CTC cluster assay, doxorubicin screening on MCF-7 clusters (live/dead staining); assay type: cell-based; conditions: Homo sapiens, MCF7, normoxia, 72 hrs exposure from Day 3, viability by Calcein-AM/EtBr
# Protocol: Cell Culture of MCF-7 Cancer Cell Line MCF-7 (HTB-22TM, ATCC, USA), a human breast adenocarcinoma cell line, was first used to mimic CTC cluster formation. Cell lines were maintained in supplemented high-glucose Dulbecco's modified Eagle's medium (DMEM) (Invitrogen, USA) with 10% fetal bovine serum (FBS) (Invitrogen, USA) together with 1% penicillin-streptomycin (Invitrogen, USA). Cultures were kept at 37° C. in a humidified atmosphere containing 5% (v/v) CO2 till 80% confluence. Cells were cultured in sterile 25 cm^2 flasks (BD Bioscience, USA) and sub-cultivated two times a week with media replaced every 48 h. Sub-confluent monolayers were dissociated using 0.01% otrypsin and 5.3 mM EDTA solution (Lonza, Switzerland).
# The closed system was then incubated at 37° C., 5% CO2 till drug treatment at Day 3 or Day 11 for MCF-7 cultures and clinical sample cultures respectively.
# A stock solution was prepared in 100% DMSO and subsequently was diluted in supplemented DMEM (1 μl to 1 ml of media), resulting in ˜0.1% of DMSO concentration (1 μM drug concentration), which has negligible effects on cells.
# To establish the IC50 values, z-stacks images of 25 microwells from each channel were obtained with a confocal microscope.
smiles,measurement,setting,value
"COc1cccc2c1C(=O)c1c(O)c3c(c(O)c1C2=O)C[C@@](O)(C(=O)CO)C[C@@H]3O[C@H]1C[C@H](N)[C@H](O)[C@H](C)O1 [doxorubicin, Doxorubicin]",IC50,"[1]; 72 h, read-out: IC50 value, sample CES021, Post treatment",> 1000 nM
same,IC50,"[1]; 72 h, read-out: IC50 value, sample CES053, Post treatment",340 nM
same,IC50,"[1]; 72 h, read-out: IC50 value, sample P2B28, Post treatment",> 1000 nM
same,IC50,"[1]; 72 h, read-out: IC50 value, sample P2B29, Post treatment",860 nM
same,viability at 1 µM,"[1]; 72 h, read-out: Percentage of viable CD45-cells, CES21 Post-treatment, 1.6% of drug (1 μM)",96.4%
same,viability at 1 µM,"[1]; 72 h, read-out: Percentage of viable CD45-cells, CES21 Post-treatment, 10.9% of drug (1 μM)",94.9%
same,viability at 1 µM,"[1]; 72 h, read-out: Percentage of viable CD45-cells, CES21 Post-treatment, 34.4% of drug (1 μM)",92%
same,viability at 1 µM,"[1]; 72 h, read-out: Percentage of viable CD45-cells, CES21 Post-treatment, 65.6% of drug (1 μM)",78.6%
same,viability at 1 µM,"[1]; 72 h, read-out: Percentage of viable CD45-cells, CES21 Post-treatment, 89.1% of drug (1 μM)",71.1%
same,viability at 1 µM,"[1]; 72 h, read-out: Percentage of viable CD45-cells, CES21 Post-treatment, 98.4% of drug (1 μM)",66.9%
same,viability at 1 µM,"[1]; 72 h, read-out: Percentage of viable CD45-cells, CES21 Post-treatment, 100.0% of drug (1 μM)",67.9%
same,viability at 1 µM,"[1]; 72 h, read-out: Percentage of viable CD45-cells, CES053 Post-treatment, 1.6% of drug (1 μM)",51.7%
same,viability at 1 µM,"[1]; 72 h, read-out: Percentage of viable CD45-cells, CES053 Post-treatment, 10.9% of drug (1 μM)",51.4%
same,viability at 1 µM,"[1]; 72 h, read-out: Percentage of viable CD45-cells, CES053 Post-treatment, 34.4% of drug (1 μM)",48%
same,viability at 1 µM,"[1]; 72 h, read-out: Percentage of viable CD45-cells, CES053 Post-treatment, 65.6% of drug (1 μM)",52.2%
same,viability at 1 µM,"[1]; 72 h, read-out: Percentage of viable CD45-cells, CES053 Post-treatment, 89.1% of drug (1 μM)",42.8%
same,viability at 1 µM,"[1]; 72 h, read-out: Percentage of viable CD45-cells, CES053 Post-treatment, 98.4% of drug (1 μM)",41%
same,viability at 1 µM,"[1]; 72 h, read-out: Percentage of viable CD45-cells, CES053 Post-treatment, 100.0% of drug (1 μM)",39.8%
same,viability at 1 µM,"[1]; 72 h, read-out: Percentage of viable CD45-cells, P2B28 Post-treatment, 1.6% of drug (1 μM)",39.3%
same,viability at 1 µM,"[1]; 72 h, read-out: Percentage of viable CD45-cells, P2B28 Post-treatment, 10.9% of drug (1 μM)",32.6%
same,viability at 1 µM,"[1]; 72 h, read-out: Percentage of viable CD45-cells, P2B28 Post-treatment, 34.4% of drug (1 μM)",39.2%
same,viability at 1 µM,"[1]; 72 h, read-out: Percentage of viable CD45-cells, P2B28 Post-treatment, 65.6% of drug (1 μM)",28.8%
same,viability at 1 µM,"[1]; 72 h, read-out: Percentage of viable CD45-cells, P2B28 Post-treatment, 89.1% of drug (1 μM)",27.6%
same,viability at 1 µM,"[1]; 72 h, read-out: Percentage of viable CD45-cells, P2B28 Post-treatment, 98.4% of drug (1 μM)",24.4%
same,viability at 1 µM,"[1]; 72 h, read-out: Percentage of viable CD45-cells, P2B28 Post-treatment, 100.0% of drug (1 μM)",0%
same,viability at 1 µM,"[1]; 72 h, read-out: Percentage of viable CD45-cells, P2B29 Post-treatment, 1.6% of drug (1 μM)",73.6%
same,viability at 1 µM,"[1]; 72 h, read-out: Percentage of viable CD45-cells, P2B29 Post-treatment, 10.9% of drug (1 μM)",56.2%
same,viability at 1 µM,"[1]; 72 h, read-out: Percentage of viable CD45-cells, P2B29 Post-treatment, 34.4% of drug (1 μM)",18.5%
same,viability at 1 µM,"[1]; 72 h, read-out: Percentage of viable CD45-cells, P2B29 Post-treatment, 65.6% of drug (1 μM)",7.7%
same,viability at 1 µM,"[1]; 72 h, read-out: Percentage of viable CD45-cells, P2B29 Post-treatment, 89.1% of drug (1 μM)",4.1%
same,viability at 1 µM,"[1]; 72 h, read-out: Percentage of viable CD45-cells, P2B29 Post-treatment, 98.4% of drug (1 μM)",1.1%
same,viability at 1 µM,"[1]; 72 h, read-out: Percentage of viable CD45-cells, P2B29 Post-treatment, 100.0% of drug (1 μM)",0.4%
same,IC50,"[1]; read-out: IC50 value, sample CTB039, Pre-treatment",850 nM
same,IC50,"[1]; read-out: IC50 value, sample P2B29, Pre-treatment",940 ± 40 nM
same,viability at 1 µM,"[1]; read-out: Percentage of viable CD45-cells, CTB039 Pre-treatment, 1.6% of drug (1 μM)",85.5%
same,viability at 1 µM,"[1]; read-out: Percentage of viable CD45-cells, CTB039 Pre-treatment, 10.9% of drug (1 μM)",81.6%
same,viability at 1 µM,"[1]; read-out: Percentage of viable CD45-cells, CTB039 Pre-treatment, 34.4% of drug (1 μM)",69.7%
same,viability at 1 µM,"[1]; read-out: Percentage of viable CD45-cells, CTB039 Pre-treatment, 65.6% of drug (1 μM)",58.3%
same,viability at 1 µM,"[1]; read-out: Percentage of viable CD45-cells, CTB039 Pre-treatment, 89.1% of drug (1 μM)",48.3%
same,viability at 1 µM,"[1]; read-out: Percentage of viable CD45-cells, CTB039 Pre-treatment, 98.4% of drug (1 μM)",44.2%
same,viability at 1 µM,"[1]; read-out: Percentage of viable CD45-cells, CTB039 Pre-treatment, 100.0% of drug (1 μM)",40.8%
same,viability at 1 µM,"[1]; read-out: Percentage of viable CD45-cells, P2B29 Pre-treatment, 1.6% of drug (1 μM)",96.6%
same,viability at 1 µM,"[1]; read-out: Percentage of viable CD45-cells, P2B29 Pre-treatment, 10.9% of drug (1 μM)",86.4%
same,viability at 1 µM,"[1]; read-out: Percentage of viable CD45-cells, P2B29 Pre-treatment, 34.4% of drug (1 μM)",26.2%
same,viability at 1 µM,"[1]; read-out: Percentage of viable CD45-cells, P2B29 Pre-treatment, 65.6% of drug (1 μM)",3.9%
same,viability at 1 µM,"[1]; read-out: Percentage of viable CD45-cells, P2B29 Pre-treatment, 89.1% of drug (1 μM)",2.6%
same,viability at 1 µM,"[1]; read-out: Percentage of viable CD45-cells, P2B29 Pre-treatment, 98.4% of drug (1 μM)",0.7%
same,viability at 1 µM,"[1]; read-out: Percentage of viable CD45-cells, P2B29 Pre-treatment, 100.0% of drug (1 μM)",0.4%
same,"average correlation coefficient, percentage of microwells with cluster vs concentration of doxorubicin","[1]; clinical sample cultures, FIG. 15A",−0.71
same,proportion of microwells with presence of macrophage-like cells vs drug concentration,"[1]; clinical sample cultures, FIG. 15B",did not seem to correlate with drug concentration
same,IC50,MCF-7 monolayer cultures,~500 nM
same,IC50,[2],780 ± 20 nM
